Measured values: patent US8685928B2, “Antagonists of MUC1” (Dana-Farber Cancer Institute, Inc., priority 2010, dated 2014)
Values after ≈ are worked out from the molar mass of the structure shown. “Also recorded” adds a separate entry of the source. Positions of bridges follow the written chain, without caps; N, C: chain ends. Non-standard residues stand in square brackets, D forms with d. Residues, ends and D or L forms follow the SMILES beside them.

Tests used:
[1] = tested on: H1650 NSCLC; conditions: human
Description: (§1) GO-203-2 and GO-203-2c were evaluated for ability to inhibit proliferation of murine and human carcinoma cell lines in vitro. Test compound (5 μM final concentration) was added to tumor cell cultures daily for 5 to 6 days, and cell viability was determined by trypan blue dye exclusion.

[2] = tested on: H1975 NSCLC; conditions: human
Description: as §1

[3] = tested on: KW-814 T6 NSCLC; conditions: mouse
Description: as §1

[4] = tested on: MiaPaCa-2 pancreatic carcinoma; conditions: human
Description: as §1

[5] = tested on: ZR-75-1 breast carcinoma; conditions: human
Description: as §1

[6] = tested on: ZR-75-1 human breast carcinoma xenograft; test: ZR-75-1 human breast carcinoma xenograft model, daily dosing for 21 days; type: in vivo, mouse; conditions: nu/nu mice
Description: Efficacy of GO-203-2c was evaluated in a ZR-75-1 human breast carcinoma xenograft model. Female nu/nu mice (20-30 g; Charles River Laboratories, Wilmington, Mass.) were injected in the thigh with 5 million ZR-75-1 cells in Matrigel suspension. Mice also received subcutaneous 17-β-estradiol pellets. When tumors reached 100-200 mm^3 in size (approximately 12-15 days after implantation), mice were split into 4 groups of 5 mice and administered the following treatments daily for 21 days: phosphate-buffered saline (PBS) IP, 1 mg/kg GO-203-2c IV, 4 mg/kg GO-203-2c IV or 4 mg/kg control peptide CP-3 IV. Each animal was sacrificed when the tumor reached the predetermined endpoint size (˜2500 mm^3) or when the animals remained tumor-free for 180 days after implantation of the tumor cells.

[7] = tested on: A549 non-small cell lung carcinoma xenograft; test: A549 non-small cell lung carcinoma xenograft model; type: in vivo, mouse; conditions: for Tumor response: 7.5 mg/kg
Description: Male BALB/c nu/nu mice (6-7 weeks old; Charles River Laboratories, Wilmington, Mass.) were injected with 5 million A549 or PC3 cells in the right thigh. When tumors reached a predetermined size (approximately 80-100 mm^3; 10-16 days after tumor cell implantation), treatment was initiated as follows: Group 1, saline control (daily×21 days); Group 2, GO-203-2c (7.5 mg/kg, 5 days on/2 days off×3 cycles); Group 3, GO-203-2c (7.5 mg/kg, daily×21 days). In the A549 study, Group 3 animals that still had palpable/measurable tumors at the end of the 21-day treatment period were administered an additional 9 days of GO-203-2c treatment (Group 3′), with a one week interim period between treatments.

[8] = target: T1, MUC1-CD (Homo sapiens, UniProt P15941); test: MUC1-CD oligomerization in HEK 293T cells transfected with GFP- and Flag-tag MUC1-CD; type: cell-based; conditions: HEK 293T cells transfected with human MUC1-CD
T1 construct: Mucin 1 (MUC1) oncoprotein cytoplasmic domain (MUC1-CD); expressed in transfected cells; host or cells: HEK 293T
Description: This finding is not surprising based on a requirement for the cysteine residues in the GO-203-2 binding domain (CQCRRKN) to be available for binding with cysteine residues on the corresponding binding domain of the MUC1-CD protein.

[9] = Pivotal repeat-dose rat toxicity study; type: in vivo; conditions: for Safety margin: human starting dose lower than NOAEL: 3 mg/m^2 human starting dose
Description: The proposed clinical trial will be a multicenter, open-label, dose-escalation, safety, pharmacodynamic and pharmacokinetic study in patients with advanced solid tumors administered GO-203-2c IV over 60 min once per day for 21 consecutive days; this dosing regimen will be repeated every 28 days. Since the majority of the treatment-related findings in rats and dogs were localized at the infusion site or were secondary to the infusion site reactions, the no-observed-adverse-effect-level (NOAEL) for systemic toxicity in the pivotal repeat-dose rat toxicity study was determined to be 5 mg/kg/day. The highest non-severely toxic dose (HNSTD), which was also considered the NOAEL, was established as 1 mg/kg/day in the dog pivotal repeat-dose toxicity study. For vascular injury at the injection site, the NOAEL in rats is […]. This concentration rate is 25-fold greater than the estimated concentration rate for humans (0.83 μg/mL/min) at the recommended starting dose of 3 mg/m2/day (assumes a body mass of 1.65 m2).

[10] = Solubility; type: physicochemical; conditions: for solubility: as peptide
[11] = Redox conversion in the presence of glutathione; type: physicochemical; conditions: in the presence of low levels of glutathione
Description: The drug substance is isolated as the disulfide, with the disulfide bond cyclizing the D-cys10 and D-cys12 residues. The synthesis, cleavage, oxidation and purification steps use standard solid phase procedures as described in the literature. A solution phase procedure for converting the peptide to the cyclic disulfide was developed. […] The biological properties of GO-203-2c will in part be governed by glutathione, which provides a significant portion of in vivo redox buffering capacity as mentioned above. Total glutathione levels approximate 20-30 μM in blood plasma, 0.5 mM in whole blood, and 5-10 mM intracellularly. […] Intracellular glutathione concentrations are sufficient to convert GO-203-2c (disulfide) to the GO-203-2 (dithiol) species that binds to the biological target, MUC1-CD.

[12] = target: adrenergic α1B receptor (Homo sapiens, UniProt P35368); test: biochemical
[13] = target: norepinephrine transporter (Homo sapiens, UniProt P23975); test: biochemical
[14] = target: nicotinic acetylcholine α1 (bungarotoxin) receptor (Homo sapiens, UniProt P02708+P07510+Q07001); test: biochemical
nicotinic acetylcholine α1 (bungarotoxin) receptor, sequence (P07510 23-517): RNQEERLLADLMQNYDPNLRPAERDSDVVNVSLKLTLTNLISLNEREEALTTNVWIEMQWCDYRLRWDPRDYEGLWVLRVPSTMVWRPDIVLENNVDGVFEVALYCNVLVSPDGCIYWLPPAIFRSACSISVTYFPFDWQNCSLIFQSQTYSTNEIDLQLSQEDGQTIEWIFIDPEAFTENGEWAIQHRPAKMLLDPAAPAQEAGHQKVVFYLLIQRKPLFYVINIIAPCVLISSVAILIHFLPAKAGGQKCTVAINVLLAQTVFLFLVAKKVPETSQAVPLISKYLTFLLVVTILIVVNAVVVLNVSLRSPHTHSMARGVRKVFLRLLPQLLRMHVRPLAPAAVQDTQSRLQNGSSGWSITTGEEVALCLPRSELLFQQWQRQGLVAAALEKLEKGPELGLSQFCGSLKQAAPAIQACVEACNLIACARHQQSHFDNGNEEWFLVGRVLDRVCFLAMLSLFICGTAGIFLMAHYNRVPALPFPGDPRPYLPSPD
nicotinic acetylcholine α1 (bungarotoxin) receptor, sequence (P02708 21-457): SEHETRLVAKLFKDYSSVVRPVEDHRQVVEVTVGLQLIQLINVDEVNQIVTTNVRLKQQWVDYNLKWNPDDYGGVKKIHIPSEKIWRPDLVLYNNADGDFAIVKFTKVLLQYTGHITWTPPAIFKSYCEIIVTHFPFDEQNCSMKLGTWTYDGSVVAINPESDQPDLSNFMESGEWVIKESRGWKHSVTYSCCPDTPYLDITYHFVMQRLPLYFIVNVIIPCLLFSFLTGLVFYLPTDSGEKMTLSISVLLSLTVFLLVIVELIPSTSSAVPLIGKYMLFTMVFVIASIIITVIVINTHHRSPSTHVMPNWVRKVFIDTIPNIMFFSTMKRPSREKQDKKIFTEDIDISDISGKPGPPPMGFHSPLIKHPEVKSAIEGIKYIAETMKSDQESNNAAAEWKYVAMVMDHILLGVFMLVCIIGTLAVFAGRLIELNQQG
nicotinic acetylcholine α1 (bungarotoxin) receptor, sequence (Q07001 22-517): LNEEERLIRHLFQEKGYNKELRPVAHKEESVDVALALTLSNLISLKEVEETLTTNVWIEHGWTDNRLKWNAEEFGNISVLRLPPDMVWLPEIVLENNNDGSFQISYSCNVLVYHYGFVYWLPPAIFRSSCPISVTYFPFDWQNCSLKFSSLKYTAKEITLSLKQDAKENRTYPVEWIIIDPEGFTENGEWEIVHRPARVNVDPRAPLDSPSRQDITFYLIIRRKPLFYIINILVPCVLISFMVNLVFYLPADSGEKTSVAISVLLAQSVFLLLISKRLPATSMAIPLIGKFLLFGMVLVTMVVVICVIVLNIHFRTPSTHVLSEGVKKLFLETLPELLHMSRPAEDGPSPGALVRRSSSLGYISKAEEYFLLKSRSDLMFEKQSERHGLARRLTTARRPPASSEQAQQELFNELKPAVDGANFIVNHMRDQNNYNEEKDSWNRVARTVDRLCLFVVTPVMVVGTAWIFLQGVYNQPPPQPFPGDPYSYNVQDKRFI
nicotinic acetylcholine α1 (bungarotoxin) receptor, sequence (P11230 24-501, further chain): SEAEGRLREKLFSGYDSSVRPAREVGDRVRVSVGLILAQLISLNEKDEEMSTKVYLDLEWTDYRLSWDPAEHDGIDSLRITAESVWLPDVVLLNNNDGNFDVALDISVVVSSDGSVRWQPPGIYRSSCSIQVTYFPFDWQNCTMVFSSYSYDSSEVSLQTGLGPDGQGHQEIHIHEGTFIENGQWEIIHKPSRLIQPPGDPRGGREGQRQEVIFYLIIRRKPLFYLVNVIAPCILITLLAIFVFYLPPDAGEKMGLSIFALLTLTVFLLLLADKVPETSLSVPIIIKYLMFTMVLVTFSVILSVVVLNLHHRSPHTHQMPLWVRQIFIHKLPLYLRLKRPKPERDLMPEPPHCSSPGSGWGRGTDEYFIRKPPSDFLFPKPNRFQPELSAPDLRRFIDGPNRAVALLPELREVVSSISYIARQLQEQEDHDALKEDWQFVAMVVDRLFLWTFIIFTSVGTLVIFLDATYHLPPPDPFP

adrenergic α1B receptor, sequence (P35368 whole entry): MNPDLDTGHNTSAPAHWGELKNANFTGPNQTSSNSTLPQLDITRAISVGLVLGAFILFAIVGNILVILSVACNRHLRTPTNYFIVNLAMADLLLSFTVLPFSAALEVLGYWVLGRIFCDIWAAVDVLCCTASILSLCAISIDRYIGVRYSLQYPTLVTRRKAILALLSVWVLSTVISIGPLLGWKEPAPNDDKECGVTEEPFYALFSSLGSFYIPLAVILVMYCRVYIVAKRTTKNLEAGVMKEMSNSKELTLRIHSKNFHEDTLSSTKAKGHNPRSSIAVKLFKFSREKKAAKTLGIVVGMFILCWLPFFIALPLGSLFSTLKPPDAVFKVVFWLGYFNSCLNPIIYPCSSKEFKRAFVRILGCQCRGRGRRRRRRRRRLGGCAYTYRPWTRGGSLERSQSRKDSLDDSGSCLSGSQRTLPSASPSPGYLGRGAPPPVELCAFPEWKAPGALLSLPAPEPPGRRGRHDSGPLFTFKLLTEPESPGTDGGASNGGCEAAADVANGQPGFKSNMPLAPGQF
norepinephrine transporter, sequence (P23975 whole entry, species assumed): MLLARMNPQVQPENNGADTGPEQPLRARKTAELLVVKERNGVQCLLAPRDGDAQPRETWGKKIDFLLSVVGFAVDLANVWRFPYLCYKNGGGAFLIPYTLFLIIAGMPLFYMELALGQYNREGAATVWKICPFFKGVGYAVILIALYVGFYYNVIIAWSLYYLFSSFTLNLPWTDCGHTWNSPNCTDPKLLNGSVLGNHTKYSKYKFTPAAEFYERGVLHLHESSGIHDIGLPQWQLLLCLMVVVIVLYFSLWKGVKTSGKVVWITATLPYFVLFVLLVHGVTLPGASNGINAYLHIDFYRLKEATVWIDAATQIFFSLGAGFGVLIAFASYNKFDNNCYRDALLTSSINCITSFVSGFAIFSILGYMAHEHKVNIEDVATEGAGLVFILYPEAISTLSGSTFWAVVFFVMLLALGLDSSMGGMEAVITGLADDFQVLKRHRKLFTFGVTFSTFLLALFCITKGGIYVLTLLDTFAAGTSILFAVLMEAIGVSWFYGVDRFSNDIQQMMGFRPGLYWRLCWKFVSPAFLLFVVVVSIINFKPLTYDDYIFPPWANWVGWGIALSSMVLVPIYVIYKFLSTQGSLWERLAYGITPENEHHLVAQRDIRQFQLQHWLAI
T1 sequence (P15941 1182-1255 limits assumed): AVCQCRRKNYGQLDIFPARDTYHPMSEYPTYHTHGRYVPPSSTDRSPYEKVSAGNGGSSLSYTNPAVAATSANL

Structure (SMILES): CC(=O)N[C@H](CCCNC(=N)N)C(=O)N[C@H](CCCNC(=N)N)C(=O)N[C@H](CCCNC(=N)N)C(=O)N[C@H](CCCNC(=N)N)C(=O)N[C@H](CCCNC(=N)N)C(=O)N[C@H](CCCNC(=N)N)C(=O)N[C@H](CCCNC(=N)N)C(=O)N[C@H](CCCNC(=N)N)C(=O)N[C@H](CCCNC(=N)N)C(=O)N[C@@H]1CSSC[C@H](C(=O)N[C@H](CCCNC(=N)N)C(=O)N[C@H](CCCNC(=N)N)C(=O)N[C@H](CCCCN)C(=O)N[C@H](CC(N)=O)C(N)=O)NC(=O)[C@@H](CCC(N)=O)NC1=O [GO-203-2c, Ac-(D)Arg-(D)Arg-(D)Arg-(D)Arg-(D)Arg-(D)Arg-(D)Arg-(D)Arg-(D)Arg-(D)Cys-(D)Gln-(D)Cys-(D)Arg-(D)Arg-(D)Lys-(D)Asn-NH2 disulfide] (Ac-[dR][dR][dR][dR][dR][dR][dR][dR][dR][dC][dQ][dC][dR][dR][dK][dN]-NH2; disulfide 10-12)
- % Inhibition of cell viability [1]: 89.0%
- % Inhibition of cell viability [2]: 46.2%
- % Inhibition of cell viability [3]: 70.1%
- % Inhibition of cell viability [4]: 81.5%
- % Inhibition of cell viability [5]: 43.6%
- Tumor response ([6]; 1 mg/kg IV daily for 21 days): Partial tumor regression
- Tumor response ([6]; 4 mg/kg IV daily for 21 days): complete regression of tumor growth
- Tumor response ([7]; 5 days on/2 days off x 3 cycles): tumor growth arrest during the treatment period, but the tumors resumed growth; also recorded: started growing steadily after day 9
- Tumor response ([7]; daily x 21 days): slowed down tumor growth substantially
- Tumor response after re-dosing ([7]; additional 9 days of treatment from day 29): somewhat stabilized with a very slow growth
- Average tumor size on day 29 ([7]; daily x 21 days group after 7 days of rest, at start of re-dosing): ~900 mm^3
- Inhibition of MUC1-CD oligomerization [8]: inhibition
- Rat injection-site NOAEL concentration rate relative to estimated human concentration rate (0.83 μg/mL/min) ([9]; human starting dose of 3 mg/m2/day): 25 fold
- NOAEL ([9]; in vivo, rat, repeat-dose IV, read-out: NOAEL for systemic toxicity): 5 mg/kg/day
- NOAEL (systemic) ([9]; rat, body surface area basis): 30 mg/m2/day
- Safety margin: human starting dose lower than NOAEL ([9]; rat, mg/kg basis): 62 fold
- Safety margin: human starting dose lower than NOAEL ([9]; rat, mg/m^2 basis): 10 fold
- NOAEL for vascular injury at the injection site (concentration rate) ([9]; rats): 20.8 µg/mL/min
- solubility ([10]; 10 mM acetate pH 3.0-4.0, 0.9% NaCl): > 50 mg/mL
- solubility ([10]; 10 mM acetate pH 4.0): 7 to 37 mg/mL (≈ 2.98 to 15.7 mM)
- solubility ([10]; 1% (v/v) aqueous acetic acid): > 110 mg/mL
- solubility ([10]; 10% (v/v) aqueous acetonitrile): > 110 mg/mL
- Time without gel formation ([10]; solutions in water, 1% aqueous acetic acid or 10% aqueous acetonitrile): at least 5 days
- solubility ([10]; water): > 240 mg/mL
- Conversion of disulfide to reduced (dithiol) form [11]: readily re-forms the reduced (dithiol) GO-203-2 peptide
- IC50 [12]: 3 to 8 µM
- IC50 [13]: 3 to 8 µM
- IC50 [14]: 3 to 8 µM
